Results published in patent US12221434B2, “Sulfonamide carboxamide compounds” (Inflazome Limited, priority 2017, dated 2025).

What was measured:
NLRP3 [1] = target: T1, NLRP3 (Homo sapiens, UniProt Q96P20); test: THP-1 cells pyroptosis assay (LPS + nigericin, resazurin read-out); type: cell-based; set-up: Seed THP-1 cells (25,000 cells/well) containing 1.0 μg/ml LPS; host or cells: THP-1 cells, LPS-primed, nigericin-stimulated; settings: 1 μg/ml LPS, 5 μM nigericin, NLRP3 inhibitory activity
Experimental: THP-1 cells (ATCC #TIB-202) were grown in RPMI containing L-glutamine (Gibco #11835) supplemented with 1 mM sodium pyruvate (Sigma #S8636) and penicillin (100 units/ml)/streptomycin (0.1 mg/ml) (Sigma #P4333) in 10% Fetal Bovine Serum (FBS) (Sigma #F0804). The cells were routinely passaged and grown to confluency (˜10^6 cells/ml). On the day of the experiment, THP-1 cells were harvested and resuspended into RPMI medium (without FBS). The cells were then counted and viability (>90%) checked by Trypan blue (Sigma #T8154). Appropriate dilutions were made to give a concentration of 625,000 cells/ml. To this diluted cell solution was added LPS (Sigma #L4524) to give a 1 μg/ml Final Assay Concentration (FAC). 40 μl of the final preparation was aliquoted into each well of a 96-well plate. The plate thus prepared was used for compound screening.
The following method step-by-step assay was followed for compound screening. • 1. Seed THP-1 cells (25,000 cells/well) containing 1.0 μg/ml LPS in 40 μl of RPMI medium (without FBS) in 96-well, black walled, clear bottom cell culture plates coated with poly-D-lysine (VWR #734-0317) • 2. Add 5 μl compound (8 points half-log dilution, with 10 μM top dose) or vehicle (DMSO 0.1% FAC) to the appropriate wells • 3. Incubate for 3 hrs at 37° C. and 5% CO2 • 4. Add 5 μl nigericin (Sigma #N7143) (FAC 5 μM) to all wells • 5. Incubate for 1 hr at 37° C. and 5% CO2 • 6. At the end of the incubation period, spin plates at 300×g for 3 mins and remove supernatant • 7. Then add 50 μl of resazurin (Sigma #R7017) (FAC […] resazurin in RPMI medium without FBS) and incubate plates for a further 1-1.5 h at 37° C. and 5% CO2 • 8. Plates were read in an Envision reader at Ex 560 nm and Em 590 nm • 9. IC50 data is fitted to a non-linear regression equation (log inhibitor vs response-variable slope 4-parameters) 96-Well Plate Map

NLRP3 [2] = target: T1, NLRP3; test: Human whole blood IL1β release assay (LPS + nigericin, AlphaLisa IL-1β); type: cell-based; set-up: Plate out 80 μl of whole blood containing 1 μg/ml of LPS; from tissue; host or cells: human whole blood from healthy donors (Li-heparin), LPS-primed, nigericin-stimulated; settings: 1 μg/ml LPS, 10 μM nigericin, IL-1β release, read-out: HWB IC50
Experimental: For systemic delivery, the ability to inhibit NLRP3 when the compounds are present within the bloodstream is of great importance. For this reason, the NLRP3 inhibitory activity of a number of compounds in human whole blood was investigated in accordance with the following protocol.
Human whole blood in Li-heparin tubes was obtained from healthy donors from a volunteer donor panel. • 1. Plate out 80 μl of whole blood containing 1 μg/ml of LPS in 96-well, clear bottom cell culture plate (Corning #3585) • 2. Add 10 μl compound (8 points half-log dilution with 10 μM top dose) or vehicle (DMSO 0.1% FAC) to the appropriate wells • 3. Incubate for 3 hrs at 37° C., 5% CO2 • 4. Add 10 μl nigericin (Sigma #N7143) (10 μM FAC) to all wells • 5. Incubate for 1 hr at 37° C., 5% CO2 • 6. At the end of the incubation period, spin plates at 300×g for 5 mins to pellet cells and remove 20 μl of supernatant and add to 96-well v-bottom plates for IL-1β analysis (note: these plates containing the supernatants can be stored at −80° C. to be analysed at a later date) • 7. IL-1β was measured according to the manufacturer protocol (Perkin Elmer-AlphaLisa IL-1 Kit AL220F-5000) • 8. IC50 data is fitted to a non-linear regression equation (log inhibitor vs response-variable slope 4-parameters)

T1 sequence (Q96P20 whole entry): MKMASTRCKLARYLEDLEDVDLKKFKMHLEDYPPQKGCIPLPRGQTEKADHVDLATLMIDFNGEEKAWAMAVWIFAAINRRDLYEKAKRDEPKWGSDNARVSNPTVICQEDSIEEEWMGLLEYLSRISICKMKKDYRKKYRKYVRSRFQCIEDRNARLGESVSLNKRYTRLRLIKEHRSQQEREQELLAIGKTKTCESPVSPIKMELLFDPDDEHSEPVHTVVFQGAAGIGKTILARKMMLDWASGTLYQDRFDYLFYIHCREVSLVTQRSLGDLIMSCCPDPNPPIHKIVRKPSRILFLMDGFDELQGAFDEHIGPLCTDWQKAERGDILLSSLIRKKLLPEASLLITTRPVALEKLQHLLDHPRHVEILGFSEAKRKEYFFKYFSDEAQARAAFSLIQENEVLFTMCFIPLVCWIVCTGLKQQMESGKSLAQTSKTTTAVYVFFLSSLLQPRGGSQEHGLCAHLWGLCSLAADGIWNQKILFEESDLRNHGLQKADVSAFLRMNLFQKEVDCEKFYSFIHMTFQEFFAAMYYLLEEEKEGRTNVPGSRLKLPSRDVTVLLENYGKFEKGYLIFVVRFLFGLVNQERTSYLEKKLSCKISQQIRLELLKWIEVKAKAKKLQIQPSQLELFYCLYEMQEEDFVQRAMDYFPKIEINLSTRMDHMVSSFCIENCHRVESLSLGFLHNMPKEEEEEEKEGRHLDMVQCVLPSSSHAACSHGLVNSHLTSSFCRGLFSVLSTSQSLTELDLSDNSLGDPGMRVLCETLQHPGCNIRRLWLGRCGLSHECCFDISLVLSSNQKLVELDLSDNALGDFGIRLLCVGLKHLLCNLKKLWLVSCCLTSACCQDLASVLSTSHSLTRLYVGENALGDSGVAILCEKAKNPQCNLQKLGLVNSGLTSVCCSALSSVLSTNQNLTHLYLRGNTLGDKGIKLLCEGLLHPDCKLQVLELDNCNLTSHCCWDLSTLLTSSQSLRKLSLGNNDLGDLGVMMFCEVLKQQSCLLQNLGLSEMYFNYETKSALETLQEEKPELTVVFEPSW

Row | Structure (SMILES) | IC50 (NLRP3 [1]) [nM] | IC50 (NLRP3 [2]) [nM]
1 | O=C(Nc1c2c(cc3c1CCC3)CCC2)NS(=O)(=O)c1ccn(-c2nccs2)n1 [Example 5, N-((1,2,3,5,6,7-Hexahydro-s-indacen-4-yl)carbamoyl)-1-(thiazol-2-yl)-1H-pyrazole-3-sulfonamide] | 640 to 2560 | –
2 | CN(Cc1nccs1)C(=O)c1cc(S(=O)(=O)NC(=O)Nc2c3c(cc4c2CCC4)CCC3)nn1C [Example 7, 3-(N-((1,2,3,5,6,7-Hexahydro-s-indacen-4-yl)carbamoyl)sulfamoyl)-N,1-dimethyl-N-(thiazol-2-ylmethyl)-1H-pyrazole-5-carboxamide] | 160 to 640 | 1600 to 3200
3 | CN(C(=O)c1cc(S(=O)(=O)NC(=O)Nc2c3c(cc4c2CCC4)CCC3)nn1C)c1nccs1 [Example 9, 3-(N-((1,2,3,5,6,7-Hexahydro-s-indacen-4-yl)carbamoyl)sulfamoyl)-N,1-dimethyl-N-(thiazol-2-yl)-1H-pyrazole-5-carboxamide] | 160 to 640 | –
4 | Cn1ccnc1Cn1ccc(S(=O)(=O)NC(=O)Nc2c3c(cc4c2CCC4)CCC3)n1 [Example 3, N-((1,2,3,5,6,7-Hexahydro-s-indacen-4-yl)carbamoyl)-1-((1-methyl-1H-imidazol-2-yl)methyl)-H-pyrazole-3-sulfonamide] | – | 400 to 800
5 | O=C(Nc1c2c(cc3c1CCC3)CCC2)NS(=O)(=O)c1ccn(Cc2ncccn2)n1 [Example 1, N-((1,2,3,5,6,7-Hexahydro-s-indacen-4-yl)carbamoyl)-1-(pyrimidin-2-ylmethyl)-1H-pyrazole-3-sulfonamide] | 640 to 2560 | –
6 | O=C(Nc1c2c(cc3c1CCC3)CCC2)NS(=O)(=O)c1ccn(Cc2ncco2)n1 [Example 2, N-((1,2,3,5,6,7-Hexahydro-s-indacen-4-yl)carbamoyl)-1-(oxazol-2-ylmethyl)-1H-pyrazole-3-sulfonamide] | 40 to 160 | 3200 to 10000
7 | CN(Cc1ccnn1C)C(=O)c1cc(S(=O)(=O)NC(=O)Nc2c3c(cc4c2CCC4)CCC3)nn1C [Example 10, 3-(N-((1,2,3,5,6,7-Hexahydro-s-indacen-4-yl)carbamoyl)sulfamoyl)-N,1-dimethyl-N-((1-methyl-1H-pyrazol-5-yl)methyl)-1H-pyrazole-5-carboxamide] | 640 to 2560 | –
8 | CN(Cc1nccn1C)C(=O)c1cc(S(=O)(=O)NC(=O)Nc2c3c(cc4c2CCC4)CCC3)nn1C [Example 8, 3-(N-((1,2,3,5,6,7-Hexahydro-s-indacen-4-yl)carbamoyl)sulfamoyl)-N,1-dimethyl-N-((1-methyl-1H-imidazol-2-yl)methyl)-1H-pyrazole-5-carboxamide] | 40 to 160 | 800 to 1600
9 | O=C(Nc1c2c(cc3c1CCC3)CCC2)NS(=O)(=O)c1ccn(-c2cccnc2)n1 [Example 6, N-((1,2,3,5,6,7-Hexahydro-s-indacen-4-yl)carbamoyl)-1-(pyridin-3-yl)-1H-pyrazole-3-sulfonamide] | 640 to 2560 | –
10 | O=C(Nc1c2c(cc3c1CCC3)CCC2)NS(=O)(=O)c1ccn(-c2ccccn2)n1 [Example 4, N-((1,2,3,5,6,7-Hexahydro-s-indacen-4-yl)carbamoyl)-1-(pyridin-2-yl)-1H-pyrazole-3-sulfonamide] | 640 to 2560 | –
